Source: patent US8846698B2, “Pyrrolo[2,3-d]pyrimidine tropomysin-related kinase inhibitors” (Pfizer Limited, priority 2011, dated 2014)

Molecular target: TRKA (Homo sapiens (Human), UniProt P04629)
Assay: Isolated TRK enzyme assay (HTRF KinEASE-TK), TRKA
Format: biochemical
Settings: read-out: Trka enzyme (IC50)

Chain of TRKA (P04629 441-796): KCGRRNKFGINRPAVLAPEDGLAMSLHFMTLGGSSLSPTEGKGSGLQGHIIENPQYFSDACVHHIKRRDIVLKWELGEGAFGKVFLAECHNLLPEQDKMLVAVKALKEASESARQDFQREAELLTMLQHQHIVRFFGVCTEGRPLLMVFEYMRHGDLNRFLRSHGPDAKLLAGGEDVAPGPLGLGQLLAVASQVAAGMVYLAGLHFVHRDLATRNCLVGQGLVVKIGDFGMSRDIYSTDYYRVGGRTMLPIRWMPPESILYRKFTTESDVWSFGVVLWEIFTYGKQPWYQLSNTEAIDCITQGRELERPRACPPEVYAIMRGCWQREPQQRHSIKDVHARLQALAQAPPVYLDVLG

SMILES | IC50
Cc1cccc(C(=O)Nc2cncc(C(=O)c3cn(C(C)C)c4ncncc34)c2)n1 [Example 440, 6-Methyl-pyridine-2-carboxylic acid[5-(7-isopropyl-7H-pyrrolo[2,3-d]pyrimidine-5-carbonyl)-pyridin-3-yl]-amide] | 676 nM
CC(C)n1cc(C(=O)c2cncc(NC(=O)c3c(C(F)(F)F)nn(C)c3Cl)c2)c2cncnc21 [Example 441, 5-Chloro-1-methyl-3-trifluoromethyl-1H-pyrazole-4-carboxylic acid [5-(7-isopropyl-7H-pyrrolo[2,3-d]pyrimidine-5-carbonyl)-pyridin-3-yl]-amide] | 8390 nM
CC(C)n1cc(C(=O)c2cncc(NC(=O)c3cnc4c(c3)OCCO4)c2)c2cncnc21 [Example 446, 2,3-Dihydro-1,4-dioxino[2,3-b]pyridine-7-carboxylic acid [5-(7-isopropyl-7H-pyrrolo[2,3-d]pyrimidine-5-carbonyl)-pyridin-3-yl]-amide] | 812 nM
CC(C)n1cc(C(=O)c2cncc(NC(=O)c3ccc4[nH]ccc4n3)c2)c2cncnc21 [Example 447, 1H-Pyrrolo[3,2-b]pyridine-5-carboxylic acid [5-(7-isopropyl-7H-pyrrolo[2,3-d]pyrimidine-5-carbonyl)-pyridin-3-yl]amide] | 919 nM
Cc1cc(C(=O)Nc2cncc(C(=O)c3cn(C(C)C)c4ncncc34)c2)n(CC(F)(F)F)n1 [Example 450, 5-Methyl-2-(2,2,2-trifluoro-ethyl)-2H-pyrazole-3-carboxylic acid [5-(7-isopropyl-7H-pyrrolo[2,3-d]pyrimidine-5-carbonyl)-pyridin-3-yl]-amide] | 3150 nM
CC(C)n1cc(C(=O)c2cncc(NC(=O)c3cnccc3C(F)(F)F)c2)c2cncnc21 [Example 451, N-[5-(7-Isopropyl-7H-pyrrolo[2,3-d]pyrimidine-5-carbonyl)-pyridin-3-yl]-4-trifluoromethyl-nicotinamide] | 7170 nM
CC(C)n1cc(C(=O)c2cncc(NC(=O)c3cc4occc4cn3)c2)c2cncnc21 [Example 455, Furo[3,2-c]pyridine-6-carboxylic acid [5-(7-isopropyl-7H-pyrrolo[2,3-d]pyrimidine-5-carbonyl)-pyridin-3-yl]-amide] | 1070 nM
Cc1nc(C)c(C(=O)Nc2cncc(C(=O)c3cn(C(C)C)c4ncncc34)c2)o1 [Example 456, 2,4-Dimethyl-oxazole-5-carboxylic acid [5-(7-isopropyl-7H-pyrrolo[2,3-d]pyrimidine-5-carbonyl)-pyridin-3-yl]-amide] | 6960 nM
CC(C)n1cc(C(=O)c2cncc(NC(=O)c3cn(C)c4cnccc34)c2)c2cncnc21 [Example 457, 1-Methyl-1H-pyrrolo[2,3-c]pyridine-3-carboxylic acid [5-(7-isopropyl-7H-pyrrolo[2,3-d]pyrimidine-5-carbonyl)-pyridin-3-yl]-amide] | 674 nM
CC(C)n1cc(C(=O)c2cncc(NC(=O)c3ccncc3F)c2)c2cncnc21 [Example 460, 3-Fluoro-N-[5-(7-isopropyl-7H-pyrrolo[2,3-d]pyrimidine-5-carbonyl)-pyridin-3-yl]-isonicotinamide] | 9800 nM
Cc1nc2ncccn2c1C(=O)Nc1cncc(C(=O)c2cn(C(C)C)c3ncncc23)c1 [Example 461, 2-Methyl-imidazo[1,2-a]pyrimidine-3-carboxylic acid [5-(7-isopropyl-7H-pyrrolo[2,3-d]pyrimidine-5-carbonyl)-pyridin-3-yl]-amide] | 9800 nM
Cc1cc(C(=O)Nc2cncc(C(=O)c3cn(C(C)C)c4ncncc34)c2)no1 [Example 462, 5-Methyl-isoxazole-3-carboxylic acid [5-(7-isopropyl-7H-pyrrolo[2,3-d]pyrimidine-5-carbonyl)-pyridin-3-yl]-amide] | 1320 nM
Cc1cncc(C(=O)Nc2cncc(C(=O)c3cn(C(C)C)c4ncncc34)c2)n1 [Example 464, 6-Methyl-pyrazine-2-carboxylic acid[5-(7-isopropyl-7H-pyrrolo[2,3-d]pyrimidine-5-carbonyl)-pyridin-3-yl]-amide] | 3010 nM
CC(C)n1cc(C(=O)c2cncc(NC(=O)c3cn(C)cn3)c2)c2cncnc21 [Example 465, 1-Methyl-1H-imidazole-4-carboxylic acid [5-(7-isopropyl-7H-pyrrolo[2,3-d]pyrimidine-5-carbonyl)-pyridin-3-yl]-amide] | 2130 nM
CC(C)n1cc(C(=O)c2cncc(NC(=O)c3ccc(Cl)cn3)c2)c2cncnc21 [Example 466, 5-Chloro-pyridine-2-carboxylic acid[5-(7-isopropyl-7H-pyrrolo[2,3-d]pyrimidine-5-carbonyl)-pyridin-3-yl]-amide] | 400 nM
CC(C)n1cc(C(=O)c2cncc(NC(=O)c3nccn3C)c2)c2cncnc21 [Example 468, 1-Methyl-1H-imidazole-2-carboxylic acid [5-(7-isopropyl-7H-pyrrolo[2,3-d]pyrimidine-5-carbonyl)-pyridin-3-yl]-amide] | 5100 nM

Further lines, results first:

IC50 | SMILES
205 nM | CC(C)n1cc(C(=O)c2cncc(NC(=O)c3cnc4[nH]ccc4c3)c2)c2cncnc21 [Example 436, 1H-Pyrrolo[2,3-b]pyridine-5-carboxylic acid [5-(7-isopropyl-7H-pyrrolo[2,3-d]pyrimidine-5-carbonyl)-pyridin-3-yl]amide]
107 nM | CCCc1cc(C(=O)Nc2cncc(C(=O)c3cn(C(C)C)c4ncncc34)c2)n(C)n1 [Example 437, 2-Methyl-5-propyl-2H-pyrazole-3-carboxylic acid [5-(7-isopropyl-7H-pyrrolo[2,3-d]pyrimidine-5-carbonyl)-pyridin-3-yl]amide]
31.2 nM | CC(C)c1csc(C(=O)Nc2cncc(C(=O)c3cn(C(C)C)c4ncncc34)c2)n1 [Example 438, 4-Isopropyl-thiazole-2-carboxylic acid [5-(7-isopropyl-7H-pyrrolo[2,3-d]pyrimidine-5-carbonyl)-pyridin-3-yl]-amide]
22.5 nM | Cc1coc2cnc(C(=O)Nc3cncc(C(=O)c4cn(C(C)C)c5ncncc45)c3)cc12 [Example 439, 3-Methyl-furo[2,3-c]pyridine-5-carboxylic acid [5-(7-isopropyl-7H-pyrrolo[2,3-d]pyrimidine-5-carbonyl)-pyridin-3-yl]-amide]
36.6 nM | COc1ccc2[nH]c(C(=O)Nc3cncc(C(=O)c4cn(C(C)C)c5ncncc45)c3)nc2c1 [Example 442, 5-Methoxy-1H-benzimidazole-2-carboxylic acid [5-(7-isopropyl-7H-pyrrolo[2,3-d]pyrimidine-5-carbonyl)-pyridin-3-yl]amide]
47.7 nM | Cc1c(Cl)c(C(=O)Nc2cncc(C(=O)c3cn(C(C)C)c4ncncc34)c2)nn1C [Example 443, 4-Chloro-1,5-dimethyl-1H-pyrazole-3-carboxylic acid [5-(7-isopropyl-7H-pyrrolo[2,3-d]pyrimidine-5-carbonyl)-pyridin-3-yl]amide]
496 nM | CC(C)n1cc(C(=O)c2cncc(NC(=O)c3nccc4[nH]ccc34)c2)c2cncnc21 [Example 444, 1H-Pyrrolo[3,2-c]pyridine-4-carboxylic acid [5-(7-isopropyl-7H-pyrrolo[2,3-d]pyrimidine-5-carbonyl)-pyridin-3-yl]amide]
5.51 nM | CCc1ccnc(C(=O)Nc2cncc(C(=O)c3cn(C(C)C)c4ncncc34)c2)c1 [Example 445, 4-Ethyl-pyridine-2-carboxylic acid [5-(7-isopropyl-7H-pyrrolo[2,3-d]pyrimidine-5-carbonyl)-pyridin-3-yl]-amide]
272 nM | CC(C)n1cc(C(=O)c2cncc(NC(=O)c3ccn4nccc4c3)c2)c2cncnc21 [Example 448, Pyrazolo[1,5-a]pyridine-5-carboxylic acid [5-(7-isopropyl-7H-pyrrolo[2,3-d]pyrimidine-5-carbonyl)-pyridin-3-yl]-amide]
155 nM | COc1ccc2ncc(C(=O)Nc3cncc(C(=O)c4cn(C(C)C)c5ncncc45)c3)cc2c1 [Example 449, 6-Methoxy-quinoline-3-carboxylic acid [5-(7-isopropyl-7H-pyrrolo[2,3-d]pyrimidine-5-carbonyl)-pyridin-3-yl]-amide]
542 nM | CC(C)n1cc(C(=O)c2cncc(NC(=O)c3cnn(CCC#N)c3)c2)c2cncnc21 [Example 452, 1-(2-Cyano-ethyl)-1H-pyrazole-4-carboxylic acid [5-(7-isopropyl-7H-pyrrolo[2,3-d]pyrimidine-5-carbonyl)-pyridin-3-yl]amide]
634 nM | CC(C)n1cc(C(=O)c2cncc(NC(=O)c3cc4cnccc4o3)c2)c2cncnc21 [Example 453, Furo[3,2-c]pyridine-2-carboxylic acid [5-(7-isopropyl-7H-pyrrolo[2,3-d]pyrimidine-5-carbonyl)-pyridin-3-yl]-amide]
633 nM | CC(C)n1cc(C(=O)c2cncc(NC(=O)c3cc4cnccc4[nH]3)c2)c2cncnc21 [Example 454, 1H-Pyrrolo[3,2-c]pyridine-2-carboxylic acid [5-(7-isopropyl-7H-pyrrolo[2,3-d]pyrimidine-5-carbonyl)-pyridin-3-yl]-amide]
213 nM | CC(C)n1cc(C(=O)c2cncc(NC(=O)c3cc4n(n3)CCC4)c2)c2cncnc21 [Example 458, 5,6-Dihydro-4H-pyrrolo[1,2-b]pyrazole-2-carboxylic acid [5-(7-isopropyl-7H-pyrrolo[2,3-d]pyrimidine-5-carbonyl)-pyridin-3-yl]-amide]
4.06 nM | CC(C)n1cc(C(=O)c2cncc(NC(=O)c3csc(C4CCC4)n3)c2)c2cncnc21 [Example 459, 2-Cyclobutyl-thiazole-4-carboxylic acid [5-(7-isopropyl-7H-pyrrolo[2,3-d]pyrimidine-5-carbonyl)-pyridin-3-yl]-amide]
186 nM | COc1cc(OC)nc(C(=O)Nc2cncc(C(=O)c3cn(C(C)C)c4ncncc34)c2)n1 [Example 463, 4,6-Dimethoxy-pyrimidine-2-carboxylic acid [5-(7-isopropyl-7H-pyrrolo[2,3-d]pyrimidine-5-carbonyl)-pyridin-3-yl]-amide]
538 nM | CC(C)n1cc(C(=O)c2cncc(NC(=O)c3ccc4cccnc4n3)c2)c2cncnc21 [Example 467, 1,8-Naphthyridine-2-carboxylic acid[5-(7-isopropyl-7H-pyrrolo[2,3-d]pyrimidine-5-carbonyl)-pyridin-3-yl]-amide]
